The record followed here is ChEMBL document CHEMBL5131462, “5'-Phosphonate modified oligoadenylates as potent activators of human RNase L” (Bioorg Med Chem, 2022).

Assay [1] is described as follows: Activation of human RNase L using [CY5]-r(C11-UUC7)- [BHQ2] as substrate assessed as cleavage of fluorescent substrate by measuring increase in fluorescence incubated for 30 mins by FRET assay.
For assay [2], the species on record is Homo sapiens. Kind of assay: Activation of human RNase L assessed as reduction in Vmax using varying concentrations of [CY5]-r(C11-UUC7)- [BHQ2] as substrate incubated for 30 mins by FRET assay relative to control. The arrangement: scale not given: the % may be the effect or the level left. The conditions noted are these: filed as activator.
For assay [3], the species on record is Homo sapiens. Kind of assay: Activation of human RNase L using [CY5]-r(C11-UUC7)- [BHQ2] as substrate assessed as cleavage of fluorescent substrate by measuring increase in fluorescence at 100 nM incubated for 30 mins by FRET assay relative to control. The conditions noted are these: filed as activator.

The structures appear in SMILES notation. Some results are limits rather than exact numbers.

A word on the EC50: it is the concentration needed to bring the measured effect to its halfway point. As to `Nc1ncnc2c1ncn2[C@@H]1O[C@H](COP(=O)(O)O[C@@H]2[C@H](O)[C@@H](COP(=O)(O)O[C@@H]3[C@H](O)[C@@H](COCC(O)P(=O)(O)O)O[C@H]3n3cnc4c(N)ncnc43)O[C@H]2n2cnc3c(N)ncnc32)[C@@H](O)[C@H]1O` (stereo partly specified), the EC50 in assay [1] was 55.2 nM. Further, the Activity was 33% in the assay filed under Homo sapiens [2] and above 75% in the assay filed under Homo sapiens [3].

In the case of `C[C@]1(OCP(=O)(O)O)O[C@@H](n2cnc3c(N)ncnc32)[C@H](OP(=O)(O)OC[C@H]2O[C@@H](n3cnc4c(N)ncnc43)[C@H](OP(=O)(O)OC[C@H]3O[C@@H](n4cnc5c(N)ncnc54)[C@H](O)[C@@H]3O)[C@@H]2O)[C@@H]1O`, in assay [1], the 50% effective concentration (EC50) was found to be 35.7 nM. Further, the Activity in the assay listed under Homo sapiens [3] was above 75%.

On to `Nc1ncnc2c1ncn2[C@@H]1O[C@H](COP(=O)(O)O[C@@H]2[C@H](O)[C@@H](COP(=O)(O)O[C@@H]3[C@H](O)[C@@H](OCP(=O)(O)O)O[C@H]3n3cnc4c(N)ncnc43)O[C@H]2n2cnc3c(N)ncnc32)[C@@H](O)[C@H]1O`, for which, in assay [1], the EC50 turned out to be 18.9 nM. Besides, in the assay filed under Homo sapiens [3], the Activity was above 75%.

For the molecule `Nc1ncnc2c1ncn2[C@@H]1O[C@H](COP(=O)(O)O[C@@H]2[C@H](O)[C@@H](COP(=O)(O)O[C@@H]3[C@H](O)[C@@H](CNC(=O)P(=O)(O)O)O[C@H]3n3cnc4c(N)ncnc43)O[C@H]2n2cnc3c(N)ncnc32)[C@@H](O)[C@H]1O`, the EC50 in assay [1] came out at 20.9 nM. The Activity in the assay filed under Homo sapiens [3] is above 75%.

Turning to `Nc1ncnc2c1ncn2[C@@H]1O[C@H](COP(=O)(O)O[C@@H]2[C@H](O)[C@@H](COP(=O)(O)O[C@@H]3[C@H](O)[C@@H](COP(=O)(O)O)O[C@H]3n3cnc4c(N)ncnc43)O[C@H]2n2cnc3c(N)ncnc32)[C@@H](O)[C@H]1O`, in assay [1], the EC50 amounted to 15.3 nM.

Regarding `Nc1ncnc2c1ncn2[C@@H]1O[C@H](COP(=O)(O)O[C@@H]2[C@H](O)[C@@H](COP(=O)(O)O[C@@H]3[C@H](O)[C@@H](COCP(=O)(O)O)O[C@H]3n3cnc4c(N)ncnc43)O[C@H]2n2cnc3c(N)ncnc32)[C@@H](O)[C@H]1O`, the EC50 in assay [1] is 46.1 nM. Moreover, the values for the Activity in the assay listed under Homo sapiens [2] and in the assay listed under Homo sapiens [3] were 33% and above 75%, respectively.

As to `Nc1ncnc2c1ncn2[C@@H]1O[C@H](COP(=O)(O)O[C@@H]2[C@H](O)[C@@H](COP(=O)(O)O[C@@H]3[C@H](O)[C@@H](CSCP(=O)(O)O)O[C@H]3n3cnc4c(N)ncnc43)O[C@H]2n2cnc3c(N)ncnc32)[C@@H](O)[C@H]1O`, the EC50 in assay [1] is 33.8 nM. Further, the figures for the Activity in the assay filed under Homo sapiens [2] and in the assay filed under Homo sapiens [3] were 33% and above 75%, respectively.
